Measurements taken from patent publication US9809598B2 (Merck Patent GmbH, priority 2014, dated 2017).
Counter-ions that a name gives are not always drawn.

Experiments:
PARP-1 = target: T1, PARP-1 (Homo sapiens, UniProt P09874); experiment: PARP-1 autoparsylation assay (HTRF); format: biochemical; details: His-tagged Parp-1, autoparsylation HTRF
T1 construct: purchased Enzo Life Sciences GmbH, Lörrach, Germany
From the text: Description of the PARP1 Assay
Biochemical Activity Testing of PARP-1: Autoparsylation Assay
The autoparsylation assay is run in two steps: the enzymatic reaction in which His-tagged Parp-1 transfers biotinylated ADP-ribose/ADP-ribose to itself from biotinylated NAD/NAD as co-substrate and the detection reaction where a time resolved FRET between cryptate labelled anti-His antibody bound to the His tag of the enzyme and Xlent® labelled-streptavidin bound the biotin-parsylation residue is analysed. The autoparsylation activity is detectable directly via the increase in HTRF signal.
The autoparsylation assay is performed as 384-well HTRF® (Cisbio, Codolet, France) assay format in Greiner low volume nb 384-well microtiter plates. […] The ratio of the emission signals is determined. The full value used is the inhibitor-free reaction. The pharmacological zero value used is Olaparib (LClabs, Woburn, US) in a final concentration of 1 μM. The inhibitory values (IC50) are determined using either the program Symyx Assay Explorer® or Condosseo® from GeneData.

TNKS1 = target: T2, TNKS1 (Homo sapiens, UniProt O95271); experiment: TNKS1 activity ELISA (autoparsylation assay); format: biochemical; details: GST-tagged Tnks-1 (1023-1327 aa)
T2 construct: GST-tagged Tnks-1 (1023-1327 aa, prepared in-house); made in house
T2 sequence (O95271 1023-1327): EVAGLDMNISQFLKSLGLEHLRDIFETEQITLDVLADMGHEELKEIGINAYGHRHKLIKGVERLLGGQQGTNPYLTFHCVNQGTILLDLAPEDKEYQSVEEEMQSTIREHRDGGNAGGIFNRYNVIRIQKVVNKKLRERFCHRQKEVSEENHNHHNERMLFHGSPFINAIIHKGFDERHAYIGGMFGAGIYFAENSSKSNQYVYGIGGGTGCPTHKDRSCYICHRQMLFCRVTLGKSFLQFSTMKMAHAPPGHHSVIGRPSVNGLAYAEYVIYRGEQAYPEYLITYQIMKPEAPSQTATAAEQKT
In short: (§1)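 Autoparsylation ELISA: biotinylated NAD serves as co-substrate for plate-bound GST-TNKS1/TNKS2, incubated with test compounds. Readout is HRP luminescence after streptavidin-HRP binding, referenced to the no-inhibitor reaction, from which IC50 values are derived.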

TNKS2 = target: T3, TNKS2 (Homo sapiens, UniProt Q9H2K2); experiment: TNKS2 activity ELISA (autoparsylation assay); format: biochemical; details: GST-tagged Tnks-2 (873-1166 aa); read-out: IC50 [M] TNKS2 ELISA
T3 construct: GST-tagged Tnks-2 (873-1166 aa, prepared in-house); made in house
T3 sequence (Q9H2K2 873-1166): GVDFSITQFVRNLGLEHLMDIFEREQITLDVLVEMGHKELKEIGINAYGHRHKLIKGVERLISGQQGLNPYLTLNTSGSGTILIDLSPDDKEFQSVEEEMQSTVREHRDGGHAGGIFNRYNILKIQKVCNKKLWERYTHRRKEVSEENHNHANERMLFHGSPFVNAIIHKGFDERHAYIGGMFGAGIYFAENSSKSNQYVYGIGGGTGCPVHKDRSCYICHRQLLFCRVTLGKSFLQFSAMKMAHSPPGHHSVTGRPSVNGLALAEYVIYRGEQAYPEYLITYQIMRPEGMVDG
In short: as §1

Tankyrases = details: read-out: EC50 [M] TNKS cellular assay; DLD1 cells, 24 hours, Axin2 increase

T1 sequence (P09874 whole entry): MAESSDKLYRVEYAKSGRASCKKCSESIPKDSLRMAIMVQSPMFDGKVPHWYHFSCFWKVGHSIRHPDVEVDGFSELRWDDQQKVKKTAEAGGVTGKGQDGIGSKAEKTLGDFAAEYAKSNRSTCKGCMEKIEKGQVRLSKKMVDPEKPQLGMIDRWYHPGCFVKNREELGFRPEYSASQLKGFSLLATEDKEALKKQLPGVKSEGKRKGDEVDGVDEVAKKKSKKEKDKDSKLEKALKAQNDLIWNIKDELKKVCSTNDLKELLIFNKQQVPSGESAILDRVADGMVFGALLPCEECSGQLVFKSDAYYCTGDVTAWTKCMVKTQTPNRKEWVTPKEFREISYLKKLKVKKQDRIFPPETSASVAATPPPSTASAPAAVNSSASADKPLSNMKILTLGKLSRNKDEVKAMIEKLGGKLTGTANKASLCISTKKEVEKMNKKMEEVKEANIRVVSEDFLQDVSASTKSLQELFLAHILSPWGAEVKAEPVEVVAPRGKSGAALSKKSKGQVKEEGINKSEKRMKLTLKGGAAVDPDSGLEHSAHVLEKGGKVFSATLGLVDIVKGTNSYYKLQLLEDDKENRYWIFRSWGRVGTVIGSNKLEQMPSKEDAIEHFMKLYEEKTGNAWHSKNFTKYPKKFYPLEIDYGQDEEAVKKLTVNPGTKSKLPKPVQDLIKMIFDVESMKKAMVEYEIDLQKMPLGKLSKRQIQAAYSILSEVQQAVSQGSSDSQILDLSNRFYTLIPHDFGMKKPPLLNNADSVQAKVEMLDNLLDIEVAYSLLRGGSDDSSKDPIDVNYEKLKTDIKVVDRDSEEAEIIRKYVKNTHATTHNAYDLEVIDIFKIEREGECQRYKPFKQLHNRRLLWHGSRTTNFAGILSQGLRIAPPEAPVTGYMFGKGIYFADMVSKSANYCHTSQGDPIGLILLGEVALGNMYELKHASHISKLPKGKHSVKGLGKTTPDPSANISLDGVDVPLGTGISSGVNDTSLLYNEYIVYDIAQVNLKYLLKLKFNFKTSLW

SMILES	IC50 (PARP-1) [nM]	IC50 (TNKS1) [nM]	IC50 (TNKS2) [M]	EC50 (Tankyrases) [M]
COc1ccc(C(=O)C2CCN(C(=O)CCCc3cn4cccc4c(=O)[nH]3)CC2)cn1 [Compound C15, 3-{4-[4-(6-Methoxy-pyridine-3-carbonyl)-piperidin-1-yl]-4-oxo-butyl}-2H-pyrrolo[1,2-a]pyrazin-1-one]	1700	0.23	1.7e-10	1.5e-09
N#Cc1cc(C2CCN(C(=O)CCCc3nc4c(c(=O)[nH]3)CCCC4)CC2)cnc1N [Compound C232, 6-Amino-1′-[4-(4-oxo-3,4,5,6,7,8-hexahydro-quinazolin-2-yl)-butyryl]-1′,2′,3′,4′,5′,6′-hexahydro-[3,4′]bipyridinyl-5-carbonitrile]	2700	20	5.7e-09	5.6e-08
CC(C)n1cc(C(=O)C2CCN(C(=O)CCCc3nn4cc(F)cc4c(=O)[nH]3)CC2)cn1 [Compound C221, 6-Fluoro-2-{4-[4-(1-isopropyl-1H-pyrazole-4-carbonyl)-piperidin-1-yl]-4-oxo-butyl}-3H-pyrrolo[2,1-f][1,2,4]triazin-4-one]	1900	2.1	2e-09	2.7e-08
Cc1ccc(C(=O)C2CCN(C(=O)CCCc3nn4cccc4c(=O)[nH]3)CC2)cc1 [Compound C235, 2-{4-[4-(4-Methyl-benzoyl)-piperidin-1-yl]-4-oxo-butyl}-3H-pyrrolo[2,1-f][1,2,4]triazin-4-one]	3000	0.57	3.9e-10	3.9e-09
COc1ccc(C(=O)C2CCN(C(=O)CCCc3nn4cc(F)cc4c(=O)[nH]3)CC2)cc1F [Compound C169, 6-Fluoro-2-{4-[4-(3-fluoro-4-methoxy-benzoyl)-piperidin-1-yl]-4-oxo-butyl}-3H-pyrrolo[2,1-f][1,2,4]triazin-4-one]	2200	0.17	2.2e-10	2.5e-09
Cn1ncc2c(=O)[nH]c(CCCC(=O)N3CCC(C(=O)c4ccc(F)c(F)c4)CC3)nc21 [Compound C246, 6-{4-[4-(3,4-Difluoro-benzoyl)-piperidin-1-yl]-4-oxo-butyl}-1-methyl-1,5-dihydro-pyrazolo[3,4-d]pyrimidin-4-one]	13000	0.63	3.2e-10	2.5e-08
Cc1nc(CCCC(=O)N2CCC(C(=O)c3ccc(F)cc3)CC2)[nH]c(=O)c1C [Compound C240, 2-{4-[4-(4-Fluoro-benzoyl)-piperidin-1-yl]-4-oxo-butyl}-5,6-dimethyl-3H-pyrimidin-4-one]	19000	14	5.3e-09	5.8e-07
Cc1cc2c(=O)[nH]c(CCCC(=O)N3CCC(c4nnc(-c5ccccc5)o4)CC3)nn2c1 [Compound C162, 6-Methyl-2-{4-oxo-4-[4-(5-phenyl-[1,3,4]oxadiazol-2-yl)-piperidin-1-yl]-butyl}-3H-pyrrolo[2,1-f][1,2,4]triazin-4-one]	1400	20	3.7e-08	5e-07
Cc1scc2c(=O)[nH]c(CCCC(=O)N3CCC(C(=O)c4cnn(C(C)C)c4)CC3)nc12 [Compound C226, 2-{4-[4-(1-Isopropyl-1H-pyrazole-4-carbonyl)-piperidin-1-yl]-4-oxo-butyl}-7-methyl-3H-thieno[3,4-d]pyrimidin-4-one]	1800	1.6	9.5e-10	2.5e-08
Cn1ccc2c(=O)[nH]c(CCCC(=O)N3CCC(C(=O)c4ccc(F)c(F)c4)CC3)nc21 [Compound C248, 2-{4-[4-(3,4-Difluoro-benzoyl)-piperidin-1-yl]-4-oxo-butyl}-7-methyl-3,7-dihydro-pyrrolo[2,3-d]pyrimidin-4-one]	2400	0.7	2.3e-10	8.7e-09
O=C(c1ccc(Cl)cc1)C1CCN(C(=O)CCCc2nc3c(c(=O)[nH]2)COCC3)CC1 [Compound C247, 2-{4-[4-(4-Chloro-benzoyl)-piperidin-1-yl]-4-oxo-butyl}-3,5,7,8-tetrahydro-pyrano[4,3-d]pyrimidin-4-one trifluoroacetate]	3500	3.3	6.6e-10	2.1e-08
Cc1cc2c(=O)[nH]c(CCCC(=O)N3CCC(c4cnc(N)c(-c5ncccn5)c4)CC3)nn2c1 [Compound C161, 2-[4-(6-Amino-5-pyrimidin-2-yl-3′,4′,5′,6′-tetrahydro-2′H-[3,4′]bipyridinyl-1′-yl)-4-oxo-butyl]-6-methyl-3H-pyrrolo[2,1-f][1,2,4]triazin-4-one]	4300	0.62	2.9e-09	9.7e-09
Cn1cc(C(=O)C2CCN(C(=O)CCCc3cn4cccc4c(=O)[nH]3)CC2)cn1 [Compound C22, 3-{4-[4-(1-Methyl-1H-pyrazole-4-carbonyl)-piperidin-1-yl]-4-oxo-butyl}-2H-pyrrolo[1,2-a]pyrazin-1-one]	5200	0.25	3e-10	4.5e-09
COc1ccc(C(=O)C2CCN(C(=O)CCCc3nc4c(ccn4C)c(=O)[nH]3)CC2)cc1F [Compound C180, 2-{4-[4-(3-Fluoro-4-methoxy-benzoyl)-piperidin-1-yl]-4-oxo-butyl}-7-methyl-3,7-dihydro-pyrrolo[2,3-d]pyrimidin-4-one]	1900	0.18	< 1e-10	3.3e-09
COc1ccc(C(=O)C2CCN(C(=O)CCCc3nn4cc(C)cc4c(=O)[nH]3)CC2)cn1 [Compound C159, 2-{4-[4-(6-Methoxy-pyridine-3-carbonyl)-piperidin-1-yl]-4-oxo-butyl}-6-methyl-3H-pyrrolo[2,1-f][1,2,4]triazin-4-one]	2200	1.2	2.7e-09	3.6e-08
Cc1scc2c(=O)[nH]c(CCCC(=O)N3CCC(c4cnc(N)c(C#N)c4)CC3)nc12 [Compound C115, 6-Amino-1′-[4-(7-methyl-4-oxo-3,4-dihydro-thieno[3,4-d]pyrimidin-2-yl)-butyryl]-1′,2′,3′,4′,5′,6′-hexahydro-[3,4′]bipyridinyl-5-carbonitrile trifluoroacetate]	570	0.98	1.3e-09	4.9e-08
Cc1csc2c(=O)[nH]c(CCCC(=O)N3CCC(c4nnc(-c5ccccc5)o4)CC3)nc12 [Compound C54, 7-Methyl-2-{4-oxo-4-[4-(5-phenyl-[1,3,4]oxadiazol-2-yl)-piperidin-1-yl]-butyl}-3H-thieno[3,2-d]pyrimidin-4-one]	1500	4.7	1.8e-09	1.4e-08
COc1ccc(C(=O)C2CCN(C(=O)CCCc3nn4cccc4c(=O)[nH]3)CC2)cc1F [Compound C136, 2-{4-[4-(3-Fluoro-4-methoxy-benzoyl)-piperidin-1-yl]-4-oxo-butyl}-3H-pyrrolo[2,1-f][1,2,4]triazin-4-one]	3100	0.25	2.1e-10	3.6e-09
Cc1csc2c(=O)[nH]c(CCCC(=O)N3CCC(c4cnc(N)c(C#N)c4)CC3)nc12 [Compound C56, 6-Amino-1′-[4-(7-methyl-4-oxo-3,4-dihydro-thieno[3,2-d]pyrimidin-2-yl)-butyryl]-1′,2′,3′,4′,5′,6′-hexahydro-[3,4′]bipyridinyl-5-carbonitrile]	360	0.95	5.3e-10	3.6e-08
